Patent US9309224B2 (Deciphera Pharmaceuticals, LLC, priority 2013, dated 2016)

Assays:
[1] = target: T1, unphosphorylated c-FMS kinase (uFMS, Seq. ID no. 1) (Homo sapiens, UniProt P07333); assay: uFMS kinase assay (pyruvate kinase/lactate dehydrogenase coupled); type: biochemical; conditions: ATP 500 μM
T1 construct: purchased Millipore
T1 sequence (P07333 538-972): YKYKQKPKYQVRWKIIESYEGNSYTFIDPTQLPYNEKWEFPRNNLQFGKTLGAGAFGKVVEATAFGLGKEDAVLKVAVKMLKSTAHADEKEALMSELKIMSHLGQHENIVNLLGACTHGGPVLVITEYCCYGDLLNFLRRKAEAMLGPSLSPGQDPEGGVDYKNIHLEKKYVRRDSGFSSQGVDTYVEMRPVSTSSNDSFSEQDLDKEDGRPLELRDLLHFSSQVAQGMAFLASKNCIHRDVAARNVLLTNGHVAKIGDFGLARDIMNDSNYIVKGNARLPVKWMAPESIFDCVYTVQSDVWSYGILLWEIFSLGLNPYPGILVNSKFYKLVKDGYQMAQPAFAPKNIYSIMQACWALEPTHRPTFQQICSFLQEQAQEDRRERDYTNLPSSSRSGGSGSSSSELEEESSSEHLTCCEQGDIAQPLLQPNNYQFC
Protocol: In this assay, the oxidation of NADH (thus the decrease at A340 nm) was continuously monitored spectrophometrically. The reaction mixture (100 μL) contained FMS (purchased from Millipore) (10 nM), polyE4Y (1 mg/mL), MgCl2 (10 mM), pyruvate kinase (4 units), lactate dehydrogenase (0.7 units), phosphoenol pyruvate (1 mM), NADH (0.28 mM) and ATP (500 μM) in 90 mM Tris buffer containing 0.2% octyl-glucoside and 1% DMSO, pH 7.5. The inhibition reaction was started by mixing serial diluted test compound with the above reaction mixture. The absorption at 340 nm was monitored continuously for 4 hours at 30° C. on Synergy 2 plate reader. The reaction rate was calculated using the 3 to 4 h time frame. Percent inhibition was obtained by comparison of reaction rate with that of a control (i.e. in the absence of test compound). IC50 values were calculated from a series of percent inhibition values determined at a range of inhibitor concentrations using software routines as implemented in the GraphPad Prism software package.

[2] = target: T2, unphosphorylated c-KIT kinase (uKIT, Seq. ID no. 2) (Homo sapiens, UniProt P10721); assay: uKit kinase assay (pyruvate kinase/lactate dehydrogenase coupled); type: biochemical; conditions: ATP 2000 μM
T2 construct: uKit with N-terminal GST fusion used for
T2 sequence (P10721 with tags, fused parts or gaps): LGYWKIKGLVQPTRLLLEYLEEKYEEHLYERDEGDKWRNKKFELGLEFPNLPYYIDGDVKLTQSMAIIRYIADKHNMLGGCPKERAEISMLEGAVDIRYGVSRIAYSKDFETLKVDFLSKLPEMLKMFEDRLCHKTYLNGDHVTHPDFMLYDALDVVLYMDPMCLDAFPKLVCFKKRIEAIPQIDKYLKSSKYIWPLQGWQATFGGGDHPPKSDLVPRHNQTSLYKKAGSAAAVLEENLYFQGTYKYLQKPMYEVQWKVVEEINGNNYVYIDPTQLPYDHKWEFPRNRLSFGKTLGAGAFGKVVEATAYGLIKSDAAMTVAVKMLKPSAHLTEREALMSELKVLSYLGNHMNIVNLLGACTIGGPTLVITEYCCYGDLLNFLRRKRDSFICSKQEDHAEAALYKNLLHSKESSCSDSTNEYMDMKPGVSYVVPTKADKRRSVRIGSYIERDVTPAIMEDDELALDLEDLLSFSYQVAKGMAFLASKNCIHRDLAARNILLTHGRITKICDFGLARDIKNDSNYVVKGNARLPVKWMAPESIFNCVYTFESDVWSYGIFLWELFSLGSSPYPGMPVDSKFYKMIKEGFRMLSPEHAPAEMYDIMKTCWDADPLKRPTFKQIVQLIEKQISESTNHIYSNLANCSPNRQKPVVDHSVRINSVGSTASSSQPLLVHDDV
Protocol: In this assay, the oxidation of NADH (thus the decrease at A340 nm) was continuously monitored spectrophometrically. […] The inhibition reaction was started by mixing serial diluted test compound with the above reaction mixture. The absorption at 340 nm was monitored continuously for 4 hours at 30° C. on Synergy 2 plate reader (BioTech).

[3] = tested on: M-NFS-60 cells; assay: M-NFS-60 cell proliferation assay; type: cell-based; conditions: 67 h incubation, resazurin
Protocol: M-NFS-60 Cell Proliferation Assay A serial dilution of test compound was dispensed into a 384-well black clear bottom plate (Corning, Corning, N.Y.). Two thousand five hundred cells were added per well in 50 μL complete growth medium. […] IC50 values were calculated from a series of percent inhibition values determined at a range of inhibitor concentrations using software routines as implemented in the GraphPad Prism software package.

[4] = tested on: osteoclast precursors; assay: Osteoclast tartrate-resistant acid phosphatase assay; type: cell-based; conditions: Osteoclast; 7-14 days, RANKL and M-CSF
Protocol: Diluted compound was transferred to a 384-well black clear bottom plate. Two-thousand five hundred osteoclast precursors (Lonza, Walkersville, Md.) were added per well in growth media containing Receptor Activator of Nuclear Factor Kappa-beta ligand (RANKL) and M-CSF (R&D Systems, Minneapolis, Minn.). Plates were incubated for 7-14 days at 37 degrees Celsius, 5% CO2, and 95% humidity to allow differentiation of osteoclast precursors. […] Tartrate-resistant acid phosphatase activity in the supernatant samples was determined using an acid phosphatase assay kit (Sigma, St. Louis, Mo.). Absorbance was measured at 550 nm using a plate reader. Data was analyzed using Prism software (Graphpad, San Diego, Calif.) to calculate IC50 values.

[5] = target: T3, unphosphorylated PDGFRβ kinase (uPDGFRβ, Seq. ID No. 3) (Homo sapiens, UniProt P09619); assay: Unphosphorylated PDGFRβ kinase assay (pyruvate kinase/lactate dehydrogenase coupled); type: biochemical; conditions: ATP 500 μM
T3 construct: purchased DeCode
T3 sequence (P09619 557-1105): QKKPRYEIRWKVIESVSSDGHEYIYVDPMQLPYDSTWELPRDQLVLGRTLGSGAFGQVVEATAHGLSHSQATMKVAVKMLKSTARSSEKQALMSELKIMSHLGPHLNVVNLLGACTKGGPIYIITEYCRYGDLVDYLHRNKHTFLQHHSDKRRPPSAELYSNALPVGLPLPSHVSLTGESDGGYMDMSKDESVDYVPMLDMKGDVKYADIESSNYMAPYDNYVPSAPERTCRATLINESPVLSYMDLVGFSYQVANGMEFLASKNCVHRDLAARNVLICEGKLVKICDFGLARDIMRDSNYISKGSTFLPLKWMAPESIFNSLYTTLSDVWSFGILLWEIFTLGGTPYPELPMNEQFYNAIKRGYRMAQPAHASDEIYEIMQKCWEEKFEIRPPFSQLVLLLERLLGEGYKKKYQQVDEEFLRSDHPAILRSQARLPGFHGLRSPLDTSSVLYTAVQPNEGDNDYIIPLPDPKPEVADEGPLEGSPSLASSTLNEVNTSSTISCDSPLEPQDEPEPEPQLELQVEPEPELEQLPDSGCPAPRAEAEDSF
Text: Unphosyhorylated PDGFRβ (uPDGFRβkinase (Seq. ID No. 3) assay

| Compound | IC50 [1] [nM] | IC50 [2] [nM] | IC50 [3] [nM] | IC50 [4] [nM] | IC50 [5] [nM] |
| --- | --- | --- | --- | --- | --- |
| CC(=O)Nc1cc(Oc2ccc(NC(=O)NC(=O)C3CCCCC3)nc2)ccn1 [Example 1, N-((5-((2-acetamidopyridin-4-yl)oxy)pyridin-2-yl)carbamoyl)cyclohexanecarboxamide] | 10 to 100 | 100 to 1000 | < 10 | < 10 | – |
| CC(=O)Nc1cc(Oc2ccc(NC(=O)NC(=O)CC3CCCCC3)nc2)ccn1 [Example 4, N-((5-((2-acetamidopyridin-4-yl)oxy)pyridin-2-yl)carbamoyl)-2-cyclohexylacetamide] | < 10 | 10 to 100 | < 10 | < 10 | – |
| CC(=O)Nc1cc(Oc2ccc(NC(=O)NC(=O)CC3CCOCC3)nc2)ccn1 [Example 6, N-((5-((2-acetamidopyridin-4-yl)oxy)pyridin-2-yl)carbamoyl)-2-(tetrahydro-2H-pyran-4-yl)acetamide] | 10 to 100 | > 1000 | 100 to 1000 | 10 to 100 | 10 to 100 |
| CC(=O)Nc1cc(Oc2ccc(NC(=O)NC(=O)C(C)C)nc2C)ccn1 [Example 10, N-((5-((2-acetamidopyridin-4-yl)oxy)-6-methylpyridin-2-yl)carbamoyl)isobutyramide] | 10 to 100 | > 1000 | 10 to 100 | 10 to 100 | 100 to 1000 |
| CC(=O)Nc1cc(Oc2ccc(NC(=O)NC(=O)C3CCOC3)nc2C)ccn1 (stereo not shown) [Example 14, N-((5-((2-acetamidopyridin-4-yl)oxy)-6-methylpyridin-2-yl)carbamoyl)tetrahydrofuran-3-carboxamide] | 100 to 1000 | > 1000 | 10 to 100 | 100 to 1000 | > 1000 |
| CC(=O)Nc1cc(Oc2ccc(NC(=O)NC(=O)C(C)C)nc2)ccn1 [Example 15, N-((5-((2-acetamidopyridin-4-yl)oxy)pyridin-2-yl)carbamoyl)isobutyramide] | 10 to 100 | > 1000 | 10 to 100 | 10 to 100 | 100 to 1000 |
| CCC(=O)NC(=O)Nc1ccc(Oc2ccnc(NC(C)=O)c2)cn1 [Example 16, N-((5-((2-acetamidopyridin-4-yl)oxy)pyridin-2-yl)carbamoyl)propionamide] | 100 to 1000 | > 1000 | 100 to 1000 | 100 to 1000 | > 1000 |
| CC(C)(C)C(=O)NC(=O)Nc1ccc(Oc2ccnc(NC(=O)C3CC3)c2)cn1 [Example 18, N-(4-((6-(3-pivaloylureido)pyridin-3-yl)oxy)pyridin-2-yl)cyclopropanecarboxamide] | < 10 | 100 to 1000 | < 10 | < 10 | 100 to 1000 |
| CC(=O)Nc1cc(Oc2ccc(NC(=O)NC(=O)C3CCOC3)nc2)ccn1 (stereo not shown) [Example 22, N-((5-((2-acetamidopyridin-4-yl)oxy)pyridin-2-yl)carbamoyl)tetrahydrofuran-3-carboxamide] | 10 to 100 | > 1000 | 100 to 1000 | 10 to 100 | > 1000 |
| CC(=O)Nc1cc(Oc2ccc(NC(=O)NC(=O)C3CC4CCC3O4)nc2)ccn1 (stereo not shown) [Example 28, N-((5-((2-acetamidopyridin-4-yl)oxy)pyridin-2-yl)carbamoyl)-7-oxabicyclo[2.2.1]heptane-2-carboxamide] | < 10 | 100 to 1000 | 10 to 100 | < 10 | – |
| CC(=O)Nc1cc(Oc2ccc(NC(=O)NC(=O)C3CC4CCC3O4)nc2C)ccn1 (stereo not shown) [Example 29, N-((5-((2-acetamidopyridin-4-yl)oxy)-6-methylpyridin-2-yl)carbamoyl)-7-oxabicyclo[2.2.1]heptane-2-carboxamide] | 10 to 100 | > 1000 | 10 to 100 | 10 to 100 | – |
| CCC(=O)Nc1cc(Oc2ccc(NC(=O)NC(=O)C3CCOCC3)nc2)ccn1 [Example 32, N-((5-((2-propionamidopyridin-4-yl)oxy)pyridin-2-yl)carbamoyl)tetrahydro-2H-pyran-4-carboxamide] | 10 to 100 | > 1000 | 10 to 100 | 10 to 100 | 10 to 100 |
| O=C(NC(=O)C1CCOCC1)Nc1ccc(Oc2ccnc(NC(=O)C3CC3)c2)cn1 [Example 35, N-((5-((2-(cyclopropanecarboxamido)pyridin-4-yl)oxy)pyridin-2-yl)carbamoyl)tetrahydro-2H-pyran-4-carboxamide] | < 10 | 100 to 1000 | < 10 | < 10 | < 10 |
| CCC(=O)Nc1cc(Oc2ccc(NC(=O)NC(=O)C3(OC)CC3)nc2)ccn1 [Example 39, 1-methoxy-N-((5-((2-propionamidopyridin-4-yl)oxy)pyridin-2-yl)carbamoyl)cyclopropanecarboxamide] | 10 to 100 | > 1000 | 10 to 100 | 10 to 100 | > 1000 |
| COC(C)(C)C(=O)NC(=O)Nc1ccc(Oc2ccnc(NC(=O)C3CCN(C)CC3)c2)cn1 [Example 40, N-(4-((6-(3-(2-methoxy-2-methylpropanoyl)ureido)pyridin-3-yl)oxy)pyridin-2-yl)-1-methylpiperidine-4-carboxamide] | 10 to 100 | > 1000 | 100 to 1000 | 10 to 100 | – |
| CC(=O)Nc1cc(Oc2ccc(NC(=O)NC(=O)C3(C)CCC3)nc2C)ccn1 [Example 43, N-((5-((2-acetamidopyridin-4-yl)oxy)-6-methylpyridin-2-yl)carbamoyl)-1-methylcyclobutanecarboxamide] | < 10 | 100 to 1000 | < 10 | < 10 | 100 to 1000 |
| CC(=O)Nc1cc(Oc2ccc(NC(=O)NC(=O)C3(C)CCC3)nc2)ccn1 [Example 44, N-((5-((2-acetamidopyridin-4-yl)oxy)pyridin-2-yl)carbamoyl)-1-methylcyclobutanecarboxamide] | < 10 | 100 to 1000 | < 10 | < 10 | 100 to 1000 |
| COC1(C(=O)NC(=O)Nc2ccc(Oc3ccnc(NC(=O)C4CCN(C)CC4)c3)cn2)CC1 [Example 49, N-(4-((6-(3-(1-methoxycyclopropanecarbonyl)ureido)pyridin-3-yl)oxy)pyridin-2-yl)-1-methylpiperidine-4-carboxamide] | 10 to 100 | > 1000 | > 1000 | 100 to 1000 | > 1000 |
| CN(C)C(=O)Nc1cc(Oc2ccc(NC(=O)NC(=O)C3(C)CC3)nc2)ccn1 [Example 50, N-((5-((2-(3,3-dimethylureido)pyridin-4-yl)oxy)pyridin-2-yl)carbamoyl)-1-methylcyclopropanecarboxamide] | < 10 | 10 to 100 | < 10 | < 10 | 10 to 100 |
| CN(C)C(=O)Nc1cc(Oc2ccc(NC(=O)NC(=O)C3CCOCC3)nc2)ccn1 [Example 51, N-((5-((2-(3,3-dimethylureido)pyridin-4-yl)oxy)pyridin-2-yl)carbamoyl)tetrahydro-2H-pyran-4-carboxamide] | < 10 | 100 to 1000 | 10 to 100 | 10 to 100 | 10 to 100 |
| Cn1cc(C(=O)Nc2cc(Oc3ccc(NC(=O)NC(=O)C(C)(C)C)nc3)ccn2)cn1 [Example 52, 1-methyl-N-(4-((6-(3-pivaloylureido)pyridin-3-yl)oxy)pyridin-2-yl)-1H-pyrazole-4-carboxamide] | < 10 | 10 to 100 | < 10 | < 10 | 100 to 1000 |
| CC(C)(C)C(=O)NC(=O)Nc1ccc(Oc2ccnc(NC(=O)CN3CCCC3)c2)cn1 [Example 53, N-((5-((2-(2-(pyrrolidin-1-yl)acetamido)pyridin-4-yl)oxy)pyridin-2-yl)carbamoyl)pivalamide] | 10 to 100 | > 1000 | > 1000 | 10 to 100 | > 1000 |
| CN(C)CC(=O)Nc1cc(Oc2ccc(NC(=O)NC(=O)C(C)(C)C)nc2)ccn1 [Example 54, N-((5-((2-(2-(dimethylamino)acetamido)pyridin-4-yl)oxy)pyridin-2-yl)carbamoyl)pivalamide] | 10 to 100 | > 1000 | 100 to 1000 | 100 to 1000 | > 1000 |
| CN1CCC(C(=O)Nc2cc(Oc3ccc(NC(=O)NC(=O)C(C)(C)C)nc3)ccn2)C1 (stereo not shown) [Example 55, 1-methyl-N-(4-((6-(3-pivaloylureido)pyridin-3-yl)oxy)pyridin-2-yl)pyrrolidine-3-carboxamide] | 10 to 100 | > 1000 | > 1000 | 100 to 1000 | > 1000 |
